# Measured values: PMC9781803, “Phenotypic and Target-Directed Screening Yields New Acaricidal Alternatives for the Control of Ticks” (Molecules, 2022)
# Experiments:
# [1] = parameters: method as in PMID 28481276; details: in mice; cited from earlier work
# [2] = parameters: method as in PMID 28481276; details: experimental data; cited from earlier work
# [3] = test system: R. microplus (Mozo strain) larvae; experiment: Larval Immersion Test (LIT); type: in vivo; details: compounds 1.0 mM, 10 min immersion, 24 h
# Protocol: (§1) This assay was performed based on the method of Castro-Janer et al., 2011. Fully engorged females of R. microplus (Mozo strain) were incubated in Petri dishes at 27 °C and 85–90% relative humidity for 14 days. […] The tubes were incubated in the same conditions as described above. The larvae were ready for testing after 14 to 21 days from egg-hatching. For the test, the compounds were diluted in DMSO, and were later resuspended in distilled water, always using 15% DMSO of the final solution volume. The concentrations for the different compounds for the final immersion solution are 1 mg/mL for the extracts, and 1 mM for the compounds. […] For the immersion procedure, tubes containing the larvae were placed vertically, without the cotton plug, and the larvae were taken with a brush from the top of the tube, ensuring they were viable. A cluster with a diameter of 2 mm of larvae was collected with a brush, and was later immersed in each solution, as well as in both control solutions, for 10 min. After this time, the solutions were drained, and the larvae were placed in 8.5 cm × 7.5 cm Whatman No. 1 filter papers. The filters were folded in the middle of the 8.5 cm side, and closed with 3 bulldog clips, forming packets. These packets were incubated for 24 h, under the same conditions as described previously, and then the percent of mortality was determined, considering it as the % of the control.
# [4] = test system: J774.1 murine macrophages; experiment: Cytotoxicity assay on murine macrophages (MTT); type: cell-based; details: Mus musculus, J774.1, 48 h, read-out: IC50 (µM) Mammalian Cells
# Protocol: J774.1 murine macrophages (ATCC, Rockville, MD, USA) were grown in a DMEM culture medium containing 4 mM L-glutamine, and supplemented with 10% FCS. The cells were seeded into a 96-well plate (5 × 10^4 cells in 200 µL culture medium) and incubated at 37 °C in a 5% CO2 atmosphere for 48 h, to allow cell adhesion before drug testing. Afterward, the cells were exposed for 48 h to the compounds (25–400 μM) or the vehicle (0.4% DMSO), and additional controls (cells in medium) were used in each test. Cell viability was then assessed by measuring the mitochondria-dependent reduction of MTT to formazan: for this, MTT in sterile PBS (0.2% glucose), pH 7.4, was added to the macrophages, to a final concentration of 0.1 mg/mL, and the cells were then incubated at 37 °C for 3 h. After removing the medium, the formazan crystals were dissolved in 180 μL of DMSO and 20 μL of MTT buffer (0.1 M glycine, 0.1 M NaCl, 0.5 mM EDTA, pH 10.5), and the absorbance was measured at 560 nm. The IC50 was defined as the drug concentration at which 50% of the cells were viable, relative to the control (no drug added), and was determined by analysis using OriginLab 8.5 Corporation, Northampton, MA, USA, sigmoidal regression (% of viable cells compared to the logarithm of the compound concentration). The tests were performed in triplicate in two independent experiments.
# [5] = test system: embryonic cell line BME26; experiment: Phenotypic screening on BME26 cell cultures (MTT viability); type: cell-based, R. microplus; details: for IC50: BME26 cells, 24 h, MTT, read-out: IC50; for inhibition at 100 µM: synthetic compounds at 100 μM, BME26, 24 h, read-out: % of Growth Inhibition
# Protocol: The embryonic cell line BME26 from R. microplus (Centro de Biotecnologia, Universidade Federal do Rio Grande do Sul, Porto Alegre, RS, Brazil) was grown as adherent monolayers in a complete medium, as described previously, which consisted of L-15B300 medium supplemented with 5% heat-inactivated Fetal Bovine Serum (FBS) (Gibco Co., Grand Island, NY), 10% Tryptose Phosphate Broth (TPB) (BD), penicillin (100 U/mL), streptomycin ([…], Gibco Co., Grand Island, NY, USA), and 0.1% bovine lipoprotein concentrate (ICN), (pH 7.2). The suspension of embryonic BME26 cells from R. microplus was seeded into 24-well plates (5 × 10^5 cells/well) to a final volume of 500 μL in a complete medium, and allowed to attach. After 24 h incubation at 34 °C, the extracts (100 µg/mL final concentration) and the compounds were added to the final concentrations indicated (1–100 µM), and 0.05% dimethylsulfoxide (DMSO) was used in the negative control wells. After 24 h of treatment, 50 μL of 3-(4,5-dimethylthiazol-2-yl)-2,5-diphenyltetrazolium bromide (MTT) prepared in serum-free medium (5 mg/mL) was added to each well. The media were discarded after 2 additional hours of incubation, and 1 mL of acid-isopropyl alcohol (0.15% HCl in isopropyl alcohol) was added to dissolve the formazan crystals. The mixture was transferred to 1.5 mL tubes, centrifuged at 6000× g for 15 min, and the clear supernatant was collected in new tubes for absorbance measurement at 570 nm using quartz cuvettes in a UVmini-1240 UV–vis spectrophotometer (Shimadzu, Japan). Absorbance values of the control treatment were used for normalization (100% viability). The activity was determined by analysis using OriginLab8.5® sigmoidal regression (% of viable cells compared to the logarithm of the compound concentration). The half-maximal inhibitory concentration (IC50), defined as the drug concentration at which 50% of the cells were viable relative to the control (no drug added), was used as a measurement of activity. These experiments were performed in triplicate for each compound.
# [6] = test system: fully engorged females of the Mozo susceptible strain of R. microplus; experiment: Adult Immersion Test (AIT); type: in vivo; details: for % of Mortality AIT: compounds 1.5 mM, 15 min immersion, 14 days
# Protocol: This essay was performed based on Drummond et al., 1973, as each group of 5 fully engorged females of the Mozo susceptible strain of R. microplus was immersed in 50 mL tubes containing 10 mL of compounds at different concentrations (0.5, 1, 1.5, 2, 3.5 mM) for 15 min in four replicates. Four negative control groups were used (DMSO 10%). After immersion, the fully engorged females were lightly dried with absorbent paper. They were then placed in 100 mm disposable Petri dishes with their respective identification, and immediately incubated at 27 °C in an atmosphere with relative humidity (RH) of 85-90% for 14 days. […] The tubes carrying the eggs were closed with hydrophilic cotton, and were returned to the incubator chamber under the same conditions until the eggs hatched. The reproductive efficacy, as well as % control of each compound on R. microplus, was calculated according to published reports. The results were verified in two independent experiments.
# R. microplus = experiment: Acaricidal activity on R. microplus (LIT and AIT, overall statement); type: in vivo; details: LIT 1 mM and AIT 1.5 mM
# Protocol: as §1, with “After immersion, the fully engorged females were lightly dried with absorbent paper. […] The tubes carrying the eggs were closed with hydrophilic cotton, and were returned to the incubator chamber under the same conditions until the eggs hatched. The reproductive efficacy, as well as % control of each compound on R. microplus, was calculated according to published reports. The results were verified in two independent experiments. This” for “This”, “2011.” for “2011. Fully engorged females of R. microplus (Mozo strain) were incubated in Petri dishes at 27 °C and 85–90% relative humidity for 14 days.”, “volume.” for “volume. The concentrations for the different compounds for the final immersion solution are 1 mg/mL for the extracts, and 1 mM for the compounds.”
# [7] = test system: ticks of the population of multiresistant field; experiment: Adult immersion test on multiresistant field population (Table S3); type: in vivo, R. microplus; details: preliminary study
SMILES,LD50 (mg/kg) [1],Mutagenicity by Ames Test [2],% of Mortality LIT [3] [%],IC50 [4] [µM],IC50 [5] [µM],inhibition at 100 µM [5] [%],% of Mortality AIT [6] [%],acaricidal activity (in words) (R. microplus),acaricidal activity on multiresistant strain (in words) [7],LC50 ([6]; adult females) [mM]
O=C(/C=C/c1cccs1)/C=C/c1cccs1 [compound 796],>2000^+ mg/kg,Negative *,36 ± 8,> 50,15 ± 3,93,20 ± 1,acaricidal potential against R. microplus similar to Amitraz,,
"Cc1ccc(/N=C/N(C)/C=N/c2ccc(C)cc2C)c(C)c1 [Amitraz, reference compound]",,,100,,,,100,,,
O=C(/C=C/c1ccccn1)c1ccccc1O [compound 885],,,100 ± 9,> 50,17 ± 4,91,100 ± 9,acaricidal potential against R. microplus similar to Amitraz,had acaricidal activity,1
